Measurements reported in patent US20200378956A1, “HUMAN MICROPHYSIOLOGICAL CELL SYSTEM FOR LIVER DISEASE CONVERSTION PROV 1-18585 AND PROV 2-19154” (EMULATE, INC., priority 2018, published 2020).
Read-outs that look alike come from different tables or passages of the source. Values belong to the compound of their own block, whether it stands above or below them.

What was measured:
[1] = tested on: co-culture hepatocyte microchip; experiment: Fructose-induced liver injury on co-culture hepatocyte microchip; assay type: cell-based
Procedure: The cell culture media effluent was analyzed for triglycerides, glycogen and glucose from both the top and bottom channels of the microchannel. See, Example 1. Cell imaging analysis of lipid droplet accumulation was performed with AdipoRed® and visualized with brightfield imaging.
The hepatocyte cells and endothelial cells were seeded and incubated as a co-culture in a hepatocyte microchip and samples were collected a specific time points. See, FIG. 32.
The specific media compositions were as follows: • Liver culture media: • Top Channel: DMEM (LG) 0% FBS, NEAA 1:200, ITSG 1:10,000, Vitamin C & dexamethasone
To each media, either a 1:1 glucose:fructose ratio (low fructose) or a 0.7:1.4 glucose:fructose ratio (high fructose) is added.

[2] = tested on: human hepatocyte microchips; experiment: Bosentan ALT release, hepatocyte microchip culture; assay type: cell-based; conditions: various concentrations of bosentan
Text: (§1) FIG. 49A-B presents exemplary data showing the release of alanine transaminase (ALT) in response to various concentrations of bosentan. • FIG. 49A: Human hepatocyte microchip culture. • FIG. 49B: Human hepatocyte conventional plate cell culture.
(§2) These microfluidic systems also enable high-resolution, real-time imaging coupled with a capability for in vitro analysis of biochemical, genetic and metabolic activities, all in the functional context of living tissue. This technology can be used to evaluate tissue development, organ physiology and/or disease etiology. In the context of drug discovery, including safety and efficacy, this technology is especially valuable for the study of molecular mechanisms of action, prioritization of lead candidates, toxicity testing and biomarker identification. Bhatia et al., “Microfluidic organs-on-chips” Nature Biotechnology 2014, 32(8):760-772. […] See, FIGS. 54A-B.

[3] = tested on: Human hepatocyte conventional plate cell culture; experiment: Bosentan ALT release, conventional plate cell culture; assay type: cell-based; conditions: various concentrations of bosentan
Text: as §1, §2

[4] = tested on: sodium/bile acid cotransporter; experiment: Bosentan effect on co-transporter gene expression; assay type: cell-based; conditions: after three (3) days of culture
Text: FIG. 50A-B presents exemplary data showing the effect of bosentan on co-transporter gene expression. • FIG. 50A: Sodium/bile co-transporter. • FIG. 50B: Bile Salt Export Pump (BSEP, ABCB11) co-transporter.
as §2

[5] = tested on: Bile Salt Export Pump (BSEP, ABCB11); experiment: Bosentan effect on co-transporter gene expression; assay type: cell-based; conditions: after three (3) days of culture
hepatocytes = conditions: both the hepatocyte channel and the LSEC/Kupffer-cell channel
[6] = tested on: co-culture of hepatocytes and liver sinusoidal endothelial cells (LSECs); experiment: In vitro NAFLD model, high fat diet on co-culture hepatocyte microchip; assay type: cell-based
Procedure: For example, a co-culture of hepatocytes and liver sinusoidal endothelial cells (LSECs) cultured on a hepatocyte microchip were exposed to a high fat diet comprising of oleic acid ([…]) for up to two days. Accumulating fat droplets within these cultured hepatocytes were identified with AdipoRed® or NileRed® staining. […] See, FIG. 15. […] See, FIGS. 16A-C. Additionally, the number of lipid droplets were quantitated as well as the accompanying glucose level was determined. […] See, FIG. 18A. […] See, FIG. 18B. Photomicrographs of LSEC mitochondrial function correlate in a positive manner with twenty-four (24) hours of a high fat cell diet. See, FIG. 18C. Photomicrographs of hepatocyte mitochondrial function correlate in a positive manner after twenty-four (24) hours of a high fat cell diet. See, FIG. 18D. […] See, FIG. 19. […] The high fat diet exposure between 24-48 hours was also performed with and without the insulin-secretion agonist, Exendin. See, FIG. 60A. […] See, FIGS. 60B, 62C, 17A-B.

[7] = tested on: tri-culture of hepatocytes, liver sinusoidal endothelial cells (LSECs) and Kupffer cells; experiment: In vitro NASH model, high fat diet and LPS on tri-culture hepatocyte microchip; assay type: cell-based
Procedure: For example, a tri-culture of hepatocytes, liver sinusoidal endothelial cells (LSECs) and Kupffer cells were cultured on a hepatocyte microchip and exposed to a high fat diet comprising oleic acid. Subsequently, LPS (1 μg/ml ) was added to the high fat diet media to induce a Kupffer cell-mediated inflammatory response. […] See, FIG. 20B. When oleic acid exposure is supplemented with LPS the observance of stained lipid droplets decreases. See, FIG. 20C. […] See, FIG. 20D. […] See, FIG. 21A. […] See, FIG. 22A cf FIG. 22B. […] See, FIG. 23.

[8] = tested on: hepatocyte microchip co-culture system (e.g., Liver-Chip); experiment: Fatty acid-induced steatosis in WEN/CSC media (Example IV); assay type: cell-based
Procedure: This example was performed on a hepatocyte microchip co-culture system (e.g., Liver-Chip). As a control condition, normal cell culture media “diet” (WEN media) was flowed through the top channel of the microchip, while a CSC 10% SFB was flowed through the bottom channel of the microchip. […] The following measurements were taken: i) Lipid drop staining with Nile Red®; ii) cholesterol quantification; iii) free fatty acid quantification; and iv) glucose quantification.

[9] = tested on: tri-culture of hepatocytes and Kupffer cells; conditions: for cholesterol release: ethanol 0.04-0.16% BAC
2D models = conditions: i.e., ~0.4%; cited from earlier work
Liver-Chip hepatocytes = experiment: Ethanol / LPS dosing Liver-Chip study (FIG. 81-83)
Procedure: Oxidative stress was measured by staining of ROS-positive hepatocytes with MitoSOX™ Red (a fluorogenic dye specifically targeted to mitochondria in live cells. Oxidation of MitoSOX™ Red reagent produces red fluorescence.
Oxidation (red) is shown in the lower row stained with MitoSOX™ Red.

hepatic stellate cells = experiment: Fibrosis development in the Liver-Chip; assay type: cell-based; conditions: FIG. 46B
[10] = tested on: quadruple co-culture of hepatocytes, Kupffer cells, LSEC cells and Stellate cells; experiment: Quadruple co-culture cell activation; assay type: cell-based; conditions: FIG. 13B
[11] = liver culture media, 48 hours, low or high fructose
[12] = oleic acid (0.1 to 0.5 μM) for up to two days

Compound: O=C(CO)[C@@H](O)[C@H](O)[C@H](O)CO [fructose]
extracellular glycogen levels ([1]; 24 or 72 hours): No significant differences
triglyceride levels ([1]; 24 or 72 hours, or intestinal effluent media): No significant differences
glucose in microchannel effluent ([1]; 48 h, fructose media): observed to increase
glucose in microchannel effluent ([1]; intestinal effluent culture media, with or without fructose): no difference observed
hepatocyte cell number [1, 11]: decreased hepatocyte cell number
hepatocyte cell size [1, 11]: increased hepatocyte cell size
hepatocyte viability [1, 11]: no effect on hepatocyte viability
cholesterol levels ([1]; liver media or intestinal effluent media, 24, 48 or 72 hours): failed to significantly increase cholesterol levels
extracellular glycogen levels ([1]; low or high fructose, liver media or intestinal effluent media, 48 hours): dose-dependent decrease
triglyceride levels ([1]; low or high fructose, liver media, 48 hours): dose-dependent increase

Compound: COc1ccccc1Oc1c(NS(=O)(=O)c2ccc(C(C)(C)C)cc2)nc(-c2ncccn2)nc1OCCO [bosentan]
secreted alanine transaminase (ALT) levels [2]: dose dependent increment
secreted alanine transaminase (ALT) levels [3]: lack of response
sodium/bile acid cotransporter expression levels [4]: reduce sodium/bile acid cotransporter and BSEP transporter expression levels in a dose-dependent fashion
BSEP transporter expression levels [5]: reduce sodium/bile acid cotransporter and BSEP transporter expression levels in a dose-dependent fashion

Compound: Nc1c2c(nc3ccccc13)CCCC2 [Tacrine, tacrine]
IL-1-α (hepatocytes): accumulation
IL-1beta (hepatocytes): accumulation
IL-6 (hepatocytes): accumulation

LSEC morphology ([8]; 1 μM Oleic acid): alterations in morphology
hepatocyte lipid droplet accumulation over time ([8]; 1 μM Oleic acid, 0, 40 and 64 hours): progressive accumulation
hepatocyte free fatty acids ([8]; 1 μM Oleic acid, forty hours): shown to increase
Compound: CCCCCCCC/C=C\CCCCCCCC(=O)O [oleic acid]
cholesterol concentration ([6]; high fat diet): observed to increase
free fatty acids concentration ([6]; high fat diet): observed to increase
number of nuclei (hepatocyte proliferation or polyploidy) ([6]; high fat diet): increase in the number of nuclei
LSEC morphology by bright field imaging [6, 12]: developed an injury morphology
lipid droplets accumulation inside co-cultured hepatocytes [6, 12]: significant increase of lipid droplets accumulation
extracellular glucose concentration ([6]; oleic acid (0.1 to 0.5 μM), 48 hours): significantly higher
cell viability (mitochondrial function) ([6]; two day high fat diet): did not result in any significant reduction in cell viability
oxidative stress markers, reactive oxygen species (ROS) ([6]; two day high fat diet): increase in reactive oxygen species
lipid droplet accumulation, cells proximal to channel inlet compared to channel outlet ([7]; 48 hours of high fat diet of oleic acid): higher density of lipid droplet accumulation
observable fat droplets in the hepatocytes ([7]; oleic acid only vs control): significant increase in observable fat droplets
lipid droplets in hepatocytes ([8]; high oleic acid concentration media, FIG. 7A): Increased concentration of lipid droplets
LSEC morphological features ([8]; oleic acid, 5 μM, 2 day exposure, FIG. 7B): Morphological features indicative of injury/stress exposure

Compound: CCO [ethanol]
lipid droplet accumulation ([9]; 0.16% ethanol, 120 hours of recovery (Day 7)): statistically significant as compared to vehicle control
cholesterol levels ([9]; after 48 h of recovery): back to normal
cholesterol release ([9]; 24 h): increased
cholesterol release ([9]; 48 h): intensified
ethanol concentration significantly decreasing viability (2D models): greater than 100 mM
ethanol concentration at which modifications in glucose release levels were observed (Liver-Chip hepatocytes): above 0.32%
alcohol-induced steatosis (Liver-Chip hepatocytes; after ethanol-free recovery): reverted
cholesterol release (effluent) (Liver-Chip hepatocytes; ethanol at physiologically relevant BAC): increase of cholesterol release
cholesterol storage (Liver-Chip hepatocytes; ethanol dosing): increased cholesterol and glycogen storage
glycogen storage (Liver-Chip hepatocytes; ethanol dosing): increased cholesterol and glycogen storage
hepatocyte viability (albumin as viability marker) (Liver-Chip hepatocytes; ethanol dosing condition): sublethal

Compound: TGF-α: factor printed as activating hepatic stellate cells in FIG. 46B
hepatic stellate cell activation (hepatic stellate cells): activation of hepatic stellate cells

Compound: TGF-β: growth factor used for stellate cell activation
stellate cell activation (α-SMA staining) [10]: Stellate cell activation
